Experimental data reported in patent US11807835B2, “Detergent compositions containing a stabilized enzyme by phosphonates” (ECOLAB USA INC., priority 2016, dated 2023).

How the values were obtained:
Format in all cases: biochemical
protease = experiment: Protease activity retention in detergent use solution (4000 ppm, 5 GPG water; peptidyl substrate, glycine buffer pH 9.0); conditions: base formula, use solution at 120° F.
In short: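 Detergent use solutions at 4000 ppm in 5 GPG water were held at 120° F with stirring and sampled up to 4 h, with aliquots flash-frozen. Activity was read on a peptidyl substrate in glycine buffer pH 9.0 by absorbance against a calibration curve. Retention is % activity relative to the t=0 sample.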

lipase = experiment: Lipase activity retention in detergent use solution (4000 ppm, 5 GPG water; p-nitrophenyl valerate, TRIS buffer pH 8.0); conditions: base formula
In short: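 Lipase stability was measured in a detergent use solution under conditions mimicking presoak or manual warewash, with stirring in a water bath. Aliquots were taken over time and flash-frozen. Thawed samples were diluted in TRIS buffer at pH 8.0 and assayed with p-nitrophenyl valerate as substrate on a plate reader. Activity is reported as % retained relative to the time=0 sample.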

[1] = test system: enzyme (protease, amylase, lipase); experiment: Overall effects of phosphonates on enzyme activity (Table 3); conditions: overall effect of the phosphonate on enzyme activity in the detergent use solution
In short: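 Protease, amylase and lipase activity in detergent use solutions with varied phosphonate levels, 4000 ppm in 5 GPG water at 120° F., sampled up to 4 h and frozen at −80° C. before assay. Activity given as % retention relative to t=0 (100%).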

Polyamino Polyether Methylene Phosphonic Acid [PAPEMP]
Relative Protease Enzyme Activity (protease; phosphonate 0.3 wt-%, lower half of Table 4A, time 5): 107.31% | Relative Protease Enzyme Activity (protease; phosphonate 0.3 wt-%, lower half of Table 4A, time 20): 105.51% | Relative Protease Enzyme Activity (protease; phosphonate 0.3 wt-%, lower half of Table 4A, time 90): 96.21% | Relative Protease Enzyme Activity (protease; phosphonate 0.3 wt-%, lower half of Table 4A, time 120): 99.48% | Relative Protease Enzyme Activity (protease; phosphonate 0.3 wt-%, lower half of Table 4A, time 150, unit not given): 93.74% | Relative Protease Enzyme Activity (protease; phosphonate 0.3 wt-%, lower half of Table 4A, time 210): 92.79% | Relative Protease Enzyme Activity (protease; phosphonate 0.3 wt-%, lower half of Table 4A, time '0'): 100.00% | Relative Protease Enzyme Activity (protease; phosphonate 0.3 wt-%, lower half of Table 4A, time '40'): 100.17% | Relative Protease Enzyme Activity (protease; phosphonate 0.3 wt-%, lower half of Table 4A, time 'Blank'): 100.00% | Relative Protease Enzyme Activity (protease; phosphonate 0.3 wt-%, lower half of Table 4A, time row printed '10'): 109.98% | Relative Protease Enzyme Activity (protease; phosphonate 0.3 wt-%, lower half of Table 4A, time row printed '60'): 89.50% | Relative Protease Enzyme Activity (protease; phosphonate 0.3 wt-%, lower half of Table 4A, time row printed '180'): 86.60% | Relative Protease Enzyme Activity (protease; phosphonate 0.6 wt-%, time 0 min): 100.00% | Relative Protease Enzyme Activity (protease; phosphonate 0.6 wt-%, time 5 min): 98.49% | Relative Protease Enzyme Activity (protease; phosphonate 0.6 wt-%, time 10 min): 96.69% | Relative Protease Enzyme Activity (protease; phosphonate 0.6 wt-%, time 20 min): 93.71% | Relative Protease Enzyme Activity (protease; phosphonate 0.6 wt-%, time 40 min): 92.60% | Relative Protease Enzyme Activity (protease; phosphonate 0.6 wt-%, time 60 min): 92.60% | Relative Protease Enzyme Activity (protease; phosphonate 0.6 wt-%, time 90 min): 86.28% | Relative Protease Enzyme Activity (protease; phosphonate 0.6 wt-%, time 120 min): 88.30% | Relative Protease Enzyme Activity (protease; phosphonate 0.6 wt-%, time 150 min): 89.66% | Relative Protease Enzyme Activity (protease; phosphonate 0.6 wt-%, time 180 min): 86.90% | Relative Protease Enzyme Activity (protease; phosphonate 0.6 wt-%, time 210 min): 87.49% | Relative Protease Enzyme Activity (protease; phosphonate 0.6 wt-%, time 240 min): 86.53% | Relative Protease Enzyme Activity (protease; phosphonate at 0.1% elemental phosphorus, time 0 min): 100.00% | Relative Protease Enzyme Activity (protease; phosphonate at 0.1% elemental phosphorus, time 5 min): 95.74% | Relative Protease Enzyme Activity (protease; phosphonate at 0.1% elemental phosphorus, time 10 min): 95.47% | Relative Protease Enzyme Activity (protease; phosphonate at 0.1% elemental phosphorus, time 20 min): 92.78% | Relative Protease Enzyme Activity (protease; phosphonate at 0.1% elemental phosphorus, time 40 min): 86.55% | Relative Protease Enzyme Activity (protease; phosphonate at 0.1% elemental phosphorus, time 60 min): 87.49% | Relative Protease Enzyme Activity (protease; phosphonate at 0.1% elemental phosphorus, time 90 min): 86.61% | Relative Protease Enzyme Activity (protease; phosphonate at 0.1% elemental phosphorus, time 120 min): 86.34% | Relative Protease Enzyme Activity (protease; phosphonate at 0.1% elemental phosphorus, time 150 min): 84.01% | Relative Protease Enzyme Activity (protease; phosphonate at 0.1% elemental phosphorus, time 180 min): 71.92% | Relative Protease Enzyme Activity (protease; phosphonate at 0.1% elemental phosphorus, time 210 min): 80.74% | Relative Protease Enzyme Activity (protease; phosphonate at 0.1% elemental phosphorus, time 240 min): 79.08% | Relative Lipase Enzyme Activity (lipase; phosphonate 0.3 wt-%, use solution at 120° F., time 0 min): 49.99% | Relative Lipase Enzyme Activity (lipase; phosphonate 0.3 wt-%, use solution at 120° F., time 5 min): 100.00% | Relative Lipase Enzyme Activity (lipase; phosphonate 0.3 wt-%, use solution at 120° F., time 10 min): 92.85% | Relative Lipase Enzyme Activity (lipase; phosphonate 0.3 wt-%, use solution at 120° F., time 20 min): 77.81% | Relative Lipase Enzyme Activity (lipase; phosphonate 0.3 wt-%, use solution at 120° F., time 40 min): 54.24% | Relative Lipase Enzyme Activity (lipase; phosphonate 0.3 wt-%, use solution at 120° F., time 60 min): 51.08% | Relative Lipase Enzyme Activity (lipase; phosphonate 0.3 wt-%, use solution at 120° F., time 90 min): 45.80% | Relative Lipase Enzyme Activity (lipase; phosphonate 0.3 wt-%, use solution at 120° F., time 120 min): 36.29% | Relative Lipase Enzyme Activity (lipase; phosphonate 0.3 wt-%, use solution at 120° F., time 150 min): 33.14% | Relative Lipase Enzyme Activity (lipase; phosphonate 0.3 wt-%, use solution at 120° F., time 180 min): 28.25% | Relative Lipase Enzyme Activity (lipase; phosphonate 0.3 wt-%, use solution at 120° F., time 210 min): 26.56% | Relative Lipase Enzyme Activity (lipase; phosphonate 0.3 wt-%, use solution at 120° F., time 240 min): 24.03% | Relative Lipase Enzyme Activity (lipase; phosphonate 0.6 wt-%, use solution at 120º F., time 0 min): 100.00% | Relative Lipase Enzyme Activity (lipase; phosphonate 0.6 wt-%, use solution at 120º F., time 5 min): 86.04% | Relative Lipase Enzyme Activity (lipase; phosphonate 0.6 wt-%, use solution at 120º F., time 10 min): 83.42% | Relative Lipase Enzyme Activity (lipase; phosphonate 0.6 wt-%, use solution at 120º F., time 20 min): 73.22% | Relative Lipase Enzyme Activity (lipase; phosphonate 0.6 wt-%, use solution at 120º F., time 40 min): 64.86% | Relative Lipase Enzyme Activity (lipase; phosphonate 0.6 wt-%, use solution at 120º F., time 60 min): 59.26% | Relative Lipase Enzyme Activity (lipase; phosphonate 0.6 wt-%, use solution at 120º F., time 90 min): 47.33% | Relative Lipase Enzyme Activity (lipase; phosphonate 0.6 wt-%, use solution at 120º F., time 120 min): 42.05% | Relative Lipase Enzyme Activity (lipase; phosphonate 0.6 wt-%, use solution at 120º F., time 150 min): 38.58% | Relative Lipase Enzyme Activity (lipase; phosphonate 0.6 wt-%, use solution at 120º F., time 180 min): 29.04% | Relative Lipase Enzyme Activity (lipase; phosphonate 0.6 wt-%, use solution at 120º F., time 210 min): 31.37% | Relative Lipase Enzyme Activity (lipase; phosphonate 0.6 wt-%, use solution at 120º F., time 240 min): 29.77% | Relative Lipase Enzyme Activity (lipase; phosphonate at 0.1% elemental phosphorus, at 120º F. or at room temperature (as titled), time 0 min): 100.00% | Relative Lipase Enzyme Activity (lipase; phosphonate at 0.1% elemental phosphorus, at 120º F. or at room temperature (as titled), time 5 min): 91.09% | Relative Lipase Enzyme Activity (lipase; phosphonate at 0.1% elemental phosphorus, at 120º F. or at room temperature (as titled), time 10 min): 83.66% | Relative Lipase Enzyme Activity (lipase; phosphonate at 0.1% elemental phosphorus, at 120º F. or at room temperature (as titled), time 20 min): 75.51% | Relative Lipase Enzyme Activity (lipase; phosphonate at 0.1% elemental phosphorus, at 120º F. or at room temperature (as titled), time 40 min): 58.49% | Relative Lipase Enzyme Activity (lipase; phosphonate at 0.1% elemental phosphorus, at 120º F. or at room temperature (as titled), time 60 min): 54.87% | Relative Lipase Enzyme Activity (lipase; phosphonate at 0.1% elemental phosphorus, at 120º F. or at room temperature (as titled), time 90 min): 48.29% | Relative Lipase Enzyme Activity (lipase; phosphonate at 0.1% elemental phosphorus, at 120º F. or at room temperature (as titled), time 120 min): 42.46% | Relative Lipase Enzyme Activity (lipase; phosphonate at 0.1% elemental phosphorus, at 120º F. or at room temperature (as titled), time 150 min): 38.07% | Relative Lipase Enzyme Activity (lipase; phosphonate at 0.1% elemental phosphorus, at 120º F. or at room temperature (as titled), time 180 min): 33.57% | Relative Lipase Enzyme Activity (lipase; phosphonate at 0.1% elemental phosphorus, at 120º F. or at room temperature (as titled), time 210 min): 31.15% | Relative Lipase Enzyme Activity (lipase; phosphonate at 0.1% elemental phosphorus, at 120º F. or at room temperature (as titled), time 240 min): 31.01% | Stability (effects on enzyme activity) [1]: Yes
